Reference: ChEMBL document CHEMBL6153109, “Switching Roles─Exploring Concentration-Dependent Agonistic versus Antagonistic Behavior of Integrin Ligands” (J Med Chem, 2025)
Activity calls are given as the source filed them. The rule behind the calls is not given here.

Legend:
[1] = biological target: T1, Integrin alpha-V/beta-3 (Homo sapiens, UniProt P05106+P06756); experiment: Competitive binding affinity to human Integrin alphaVbeta3 incubated for 1 hrs in presence of vitronectin by ELISA based spectrophotometric analysis; assay type: protein-complex assay
[2] = biological target: T2, Integrin alpha-5/beta-1 (Homo sapiens, UniProt P05556+P08648); experiment: Competitive binding affinity to human Integrin alpha5beta1 incubated for 1 hrs in presence of fibronectin by ELISA based spectrophotometric analysis; assay type: protein-complex assay
[3] = biological target: Integrin alpha-V/beta-6 (Homo sapiens, UniProt P06756+P18564); experiment: Competitive binding affinity to human Integrin alphaVbeta6 incubated for 1 hrs in presence of […] of TGF-beta1 by ELISA based spectrophotometric analysis; assay type: protein-complex assay
[4] = tested on: OV-MZ-6; experiment: Inhibition of cell migration in human OV-MZ-6 cells expressing integrin alpha5beta1 assessed as delay in wound gap closure at 1 to 1000 nM measured after 72 hrs by wound scratch assay; assay type: functional, cell-based; settings: dose 1-1000 nM
[5] = tested on: M21; experiment: Inhibition of cell migration in human M21 cells expressing integrin alphaVbeta3 assessed as delay in wound gap closure at 1 nM measured after 9 to 72 hrs by wound scratch assay; assay type: functional, cell-based; settings: time 9-72 hrs
[6] = biological target: T1, Integrin alpha-V/beta-3; experiment: Agonist activity at integrin alphaVbeta3 in human M21 cells assessed as fold increase in FAK expression at 1 uM incubated for 24 hrs by Western blot analysis; assay type: cell-based; settings: filed as agonist
[7] = biological target: T2, Integrin alpha-5/beta-1; experiment: Agonist activity at integrin alpha5beta1 in human OV-MZ-6 cells assessed as fold increase in p-ERK1/2 expression at 1 uM incubated for 24 hrs by Western blot analysis; assay type: cell-based; settings: filed as agonist
[8] = biological target: T1, Integrin alpha-V/beta-3; experiment: Agonist activity at integrin alphaVbeta3 in human M21 cells assessed as increase in p-FAK expression at 1 uM incubated for 24 hrs by Western blot analysis; assay type: cell-based
[9] = biological target: T2, Integrin alpha-5/beta-1; experiment: Agonist activity at integrin alpha5beta1 in human OV-MZ-6 cells assessed as fold increase in FAK expression at 1 uM incubated for 24 hrs by Western blot analysis (reference value: 1); assay type: cell-based; settings: filed as agonist
[10] = biological target: T1, Integrin alpha-V/beta-3; experiment: Agonist activity at integrin alphaVbeta3 in human M21 cells assessed as increase in FAK expression at 1 nM incubated for 5 to 60 mins by Western blot analysis; assay type: cell-based; settings: filed as agonist, time 5-60 min
[11] = biological target: T1, Integrin alpha-V/beta-3; experiment: Agonist activity at integrin alphaVbeta3 in human M21 cells assessed as increase in FAK expression at 1 uM incubated for 5 to 60 mins by Western blot analysis; assay type: cell-based; settings: time 5-60 min
[12] = biological target: T1, Integrin alpha-V/beta-3; experiment: Agonist activity at integrin alphaVbeta3 in human M21 cells assessed as increase in p-FAK expression at 1 to 1000 nM incubated for 5 to 60 mins by Western blot analysis; assay type: cell-based; settings: dose 1-1000 nM, time 5-60 min
[13] = biological target: T2, Integrin alpha-5/beta-1; experiment: Agonist activity at integrin alpha5beta1 in human OV-MZ-6 cells assessed as increase in FAK expression at 1 nM incubated for 5 to 60 mins by Western blot analysis; assay type: cell-based; settings: filed as agonist, time 5-60 min
[14] = biological target: T2, Integrin alpha-5/beta-1; experiment: Agonist activity at integrin alpha5beta1 in human OV-MZ-6 cells assessed as fold increase in p-FAK expression at 1 nM incubated for 5 mins by Western blot analysis (reference value: 1); assay type: cell-based; settings: filed as agonist
[15] = biological target: T2, Integrin alpha-5/beta-1; experiment: Agonist activity at integrin alpha5beta1 in human OV-MZ-6 cells assessed as increase in p-FAK expression at 1 nM measured after 60 mins by Western blot analysis; assay type: cell-based
[16] = tested on: M21; experiment: Inhibition of cell migration in human M21 cells expressing integrin alphaVbeta3 assessed as cell coverage at 1 uM measured within 72 hrs by wound scratch assay (reference value: 95 %); assay type: functional; parameters: scale not given: the % may be the effect or the level left
[17] = tested on: M21; experiment: Inhibition of cell adhesion in human M21 cells expressing integrin alphaVbeta3 at 1 uM measured after 48 hrs by microscopic imaging analysis; assay type: functional, cell-based
[18] = tested on: M21; experiment: Inhibition of cell adhesion in human M21 cells expressing integrin alphaVbeta3 at 1 nM measured after 48 hrs by microscopic imaging analysis; assay type: functional, cell-based
[19] = Drug localization in cell membrane of human RKO cells overexpressing integrin alpha5beta1 at 1 uM measured within 3 mins by CellMask green staining based fluorescence analysis; assay type: ADME, cell membranes; settings: 0.05 h
[20] = Drug localization in cell membrane of human RKO cells overexpressing integrin alpha5beta1 at 1 uM measured at 30 mins by CellMask green staining based fluorescence analysis; assay type: ADME, cell membranes; settings: 0.5 h
[21] = Drug uptake in human M21 cells overexpressing integrin alphaVbeta3 at 1 uM measured at 60 to 300 mins by Hoechst 33342 staining based fluorescence analysis; assay type: ADME, cell-based; settings: m21, 1 µM, time 60-300 min
[22] = Drug uptake in human RKO cells overexpressing integrin alpha5beta1 at 1 uM measured at 60 to 300 mins by Hoechst 33342 staining based fluorescence analysis; assay type: ADME, cell-based; settings: time 60-300 min

## CC(C)C[C@H](NC(=O)[C@H](CO)NC(=O)[C@H](CC(=O)O)NC(=O)[C@H](CC(C)C)NC(=O)[C@H](CC(=O)O)NC(=O)[C@@H](NC(=O)[C@@H](N)CCCNC(=N)N)[C@@H](C)O)C(=O)N[C@@H](CCCNC(=N)N)C(=O)N[C@H](C(=O)O)[C@@H](C)O
[1]
  IC50: > 1000 nM
[2]
  IC50: > 1000 nM
[3]
  IC50: 29.5 nM

## C#CCCC(=O)NCCCOc1ccc(C(=O)N[C@H](CC(=O)O)Cc2ccc(OCCCNc3cc(OC)ccn3)cc2)cc1
[4]
  inhibition: Active
[5]
  inhibition: inactive
[6]
  fold change (FC): 2
[7]
  fold change (FC): 2.4
[8]
  Activity: inactive
[9]
  fold change (FC): 1.7
[10]
  Activity: Active
[11]
  Activity: inactive
[12]
  Activity: inactive
[13]
  Activity: Active; Slight Increase Observed
[14]
  fold change (FC): 2
[15]
  Activity: inactive
[16]
  Activity: 80%
[17]
  inhibition: Active
[18]
  inhibition: inactive

## Cc1cc(OCCCNC(=O)CCCCCNC(=O)CCCCC[N+]2=C(/C=C/C=C/C=C3/N(C)c4ccc5ccccc5c4C3(C)C)C(C)(C)c3c2ccc2ccccc32)cc(C)c1C(=O)N[C@@H](CNC(=O)CNC(=O)c1cccc(NC(=N)N)c1)C(=O)O
[19]
  Drug uptake: Active
[20]
  Drug uptake: Active
[21]
  Drug uptake: Not_active
[22]
  Drug uptake: Active
